EP3725763A1, “MYOCARDIAL REGENERATION PROMOTING COMPOUNDS, PREPARATION METHOD THEREOF, PHARMACEUTICAL COMPOSITION, AND THEIR USE” (priority 2019, dated 2020)

Experiment: MTT assay for cell viability testing
Format: cell-based, rats
Conditions: rat; H9C2 cells, 48 hours treatment at the concentrations of Table 3 (0.4 to 25 µg/ml); DMSO group = 100%; Figure 1
Description: 1.1: cell culture of H9C2 cell line
H9C2 cell line is a cardiac myoblast derived from the rats and is purchased from Food Industry Research and Development Institute, Taiwan. The culture medium is 90% (v/v) Dulbecco's modified Eagle's medium with 4 mM L-glutamine (Gibco™, Cat.12800017) adjusted to contain 4.5g/L glucose and 1.5g/L sodium bicarbonate (Sigma, Cat.S5761) and 10% (v/v) fetal bovine serum (Gibco™, Cat.10437028). Incubate at 37°C in a 5% (v/v) CO2 in air atmosphere.
1.2: MTT assay for cell viability testing
In order to find out the feasible concentration of compounds without cytotoxicity, cells was cultured to 90% confluency and cells were seeded in a 24-well plate at a concentration of 1.5*10^4 cell/well. […] After washing with PBS buffer (phosphate buffered saline), 0.5 mg/ ml of MTT (Thiazolyl Blue Tetrazolium Bromide; Sigma, Cat.M2128) was added and incubate the 24-well plate at 37°C for 4 hours. […] Then the supernatant was removed and 200 µL DMSO was added to dissolve the crystal. Mix each sample again using a pipette and read absorbance at 570 nm (the values are averages of triplicate). The value of the DMSO group is 100% to represent that the cell viability is 100%.
Work on `O=C(O)/C=C/c1ccc(OC(=O)CCCC(=O)O)cc1` [Compound 1] yielded a viability at 48 h of 80 to 120%. `O=C(O)/C=C/c1ccc(OC(=O)CCCC(=O)O)c(O)c1` [Compound 2] showed a viability at 48 h of 80 to 120%. For `O=C(O)/C=C/c1ccc(OC(=O)CCCC(=O)O)c(OC(=O)CCCC(=O)O)c1` [Compound 3], the viability at 48 h was 80 to 120%. With `O=C(O)/C=C/c1ccc(OC(=O)CCCCC(=O)O)cc1` [Compound 4] the viability at 48 h was 80 to 120%. Work on `COC(=O)CCCCC(=O)Oc1ccc(/C=C/C(=O)O)cc1` [Compound 5] yielded a viability at 48 h of 80 to 120%. For `COC(=O)CCCCC(=O)Oc1ccc(/C=C/C(=O)O)cc1OC(=O)CCCCC(=O)OC` [Compound 6], the viability at 48 h was 80 to 120%. In the case of `CC(=O)Oc1ccccc1C(=O)Oc1ccc(/C=C/C(=O)O)cc1` [Compound 7], the viability at 48 h is reported as 80 to 120%. For `CC(=O)Oc1ccccc1C(=O)Oc1ccc(/C=C/C(=O)O)cc1O` [Compound 8], the viability at 48 h was 80 to 120%. Work on `O=C(O)/C=C/c1ccc(OC(=O)Cc2cccc(Cl)c2)cc1` [Compound 9] yielded a viability at 48 h of 80 to 120%. With `O=C(O)/C=C/c1ccc(OC(=O)Cc2cccc(Cl)c2)c(OC(=O)Cc2cccc(Cl)c2)c1` [Compound 10] the viability at 48 h was 80 to 120%. With `COC(=O)/C=C/c1ccc(OC(=O)Cc2cccc(Cl)c2)c(OC(=O)Cc2cccc(Cl)c2)c1` [Compound 11] the viability at 48 h was 80 to 120%. Molecule `CC(C)(C)OC(=O)NCCCC(=O)Oc1ccc(/C=C/C(=O)O)cc1OC(=O)CCCNC(=O)OC(C)(C)C` [Compound 12] has a viability at 48 h of 80 to 120%. Work on `O=C(O)/C=C/c1ccc(NC(=O)CCCC(=O)O)cc1` [Compound 13] yielded a viability at 48 h of 80 to 120%. `COC(=O)/C=C/C(=O)Nc1ccc(/C=C/C(=O)O)cc1` [Compound 14] showed a viability at 48 h of 80 to 120%. With `CC(=O)Oc1ccccc1C(=O)N(C(=O)c1ccccc1OC(C)=O)c1ccc(/C=C/C(=O)O)cc1` [Compound 15] the viability at 48 h was 80 to 120%. `COC(=O)/C=C/c1ccccc1` [Compound 17] showed a viability at 48 h of 80 to 120%. `COC(=O)/C=C/c1ccc(O)c(O)c1` [Compound 18] gave a viability at 48 h of 80 to 120%. Molecule `O=C(/C=C/c1ccccc1)OCc1ccc(O)cc1` [Compound 21] has a viability at 48 h of 80 to 120%. Molecule `O=C(O)/C=C/c1ccc(O)cc1O` [Compound 24] has a viability at 48 h of 80 to 120%. In the case of `CC(=O)C(=O)Oc1ccc(/C=C/C(=O)O)cc1` [Compound 27], the viability at 48 h is reported as 80 to 120%. With `CC(=O)Oc1ccc(/C=C/C(=O)O)cc1` [Compound 28] the viability at 48 h was 80 to 120%. Work on `COC(=O)/C=C/c1ccc(OC(=O)c2ccccc2OC(C)=O)c(OC(=O)c2ccccc2OC(C)=O)c1` [Compound 29] yielded a viability at 48 h of 80 to 120%. `O=C(O)/C=C/c1ccc(OC(=O)c2cccnc2)cc1` [Compound 30] gave a viability at 48 h of 80 to 120%. `Nc1ccc(/C=C/C(=O)O)cc1` [Compound 31] showed a viability at 48 h of 80 to 120%. Molecule `O=C(O)/C=C/C(=O)Nc1ccc(/C=C/C(=O)O)cc1` [Compound 32] has a viability at 48 h of 80 to 120%. `O=C(O)/C=C/c1ccc(NC(=O)c2ccccc2O)cc1` [Compound 33] showed a viability at 48 h of 80 to 120%. For `O=C(/C=C/c1ccc2c(c1)OCO2)Nc1ccc(O)cc1` [Compound 34], the viability at 48 h was 80 to 120%. `Cc1ccc(/C=C/C(=O)c2cccc(NC(=O)/C=C/c3ccc4c(c3)OCO4)c2)s1` [Compound 35] showed a viability at 48 h of 80 to 120%. `O=C(O)/C=C/c1ccncc1` [Compound 36] showed a viability at 48 h of 80 to 120%. For `O=C(O)/C=C/c1cccnc1` [Compound 37], the viability at 48 h was 80 to 120%. `O=C(O)/C=C/c1cccs1` [Compound 38] showed a viability at 48 h of 80 to 120%. `O=C(O)/C=C/c1ccsc1` [Compound 39] gave a viability at 48 h of 80 to 120%. `C=CCOc1ccc(/C=C/C(=O)c2sccc2N)c(OCC=C)c1` [Compound 40] showed a viability at 48 h of 80 to 120%. For `O=C(/C=C/c1ccsc1)c1ccc(O)cc1` [Compound 41], the viability at 48 h was 80 to 120%. With `O=C(/C=C/c1ccc2c(c1)OCO2)n1cccc1` [Compound 42] the viability at 48 h was 80 to 120%. In the case of `O=C(/C=C/c1ccccn1)c1ccccn1` [Compound 43], the viability at 48 h is reported as 80 to 120%. In the case of `Cc1ccc(/C=C/C(=O)c2sc(N)nc2C)s1` [Compound 44], the viability at 48 h is reported as 80 to 120%. Molecule `O=C(/C=C/c1ccc(O)c(O)c1)O[C@H](Cc1ccc(O)c(O)c1)C(=O)O` [Compound 46] has a viability at 48 h of 80 to 120%.
